Measurements: patent US6538037B2, “Methods for preparation and use of 1α,24(S)-dihydroxyvitamin D2” (Bone Care International, Inc., priority 1991, dated 2003)
Each block holds one compound with its values, some of them ahead of it.

Key:
vitamin D receptor (VDR) = test: Vitamin D-inducible growth hormone production in transfected COS-1 cells; type: cell-based, Green monkey; conditions: for Total GH Production: averages of duplicate determinations
Description: The biological activity in vitro of chemically synthesized 1α,24(S)-(OH)2D2 and 1α,24(R)-(OH)2D2 was measured using a vitamin D-dependent transcriptional activation model system in which a vitamin D receptor (VDR)-expressing plasmid pSG5-hVDR1/3 and a plasmid p(CT4)^4TKGH containing a Growth Hormone (GH)-gene, under the control of a vitamin D-responsive element (VDRE) were co-transfected into Green monkey kidney, COS-1 cells. DNA's for these two vectors were supplied by Dr. Mark Haussler, Department of Biochemistry, University of Arizona, Tucson, Ariz.
Transfected cells were incubated with vitamin D metabolites and growth hormone production was measured.

[1] = system: 1,25-(OH)2D3 receptor site; conditions: Ishizuka et al., Steroids 1981, 1982; cited from earlier work
bovine thymus VDR = biological target: T1, bovine thymus VDR (Bos taurus, UniProt Q28037); test: Radioreceptor assay, displacement of 3H-1α,25-(OH)2D3 tracer from bovine thymus VDR; type: binding; conditions: for binding affinity to VDR compared with reference standard (in words): environmentally exposed compounds; for ED50 (amount of material to displace 50% of the bound 3H-1α,25-dihydroxyvitamin D3): environmentally exposed crystalline and powdered material, FIG. 5
T1 construct: commercially available reagents of bovine thymus VDR; purchased Incstar (Stillwater, Minn.); host or cells: bovine thymus
T1 sequence (Q28037 1-426): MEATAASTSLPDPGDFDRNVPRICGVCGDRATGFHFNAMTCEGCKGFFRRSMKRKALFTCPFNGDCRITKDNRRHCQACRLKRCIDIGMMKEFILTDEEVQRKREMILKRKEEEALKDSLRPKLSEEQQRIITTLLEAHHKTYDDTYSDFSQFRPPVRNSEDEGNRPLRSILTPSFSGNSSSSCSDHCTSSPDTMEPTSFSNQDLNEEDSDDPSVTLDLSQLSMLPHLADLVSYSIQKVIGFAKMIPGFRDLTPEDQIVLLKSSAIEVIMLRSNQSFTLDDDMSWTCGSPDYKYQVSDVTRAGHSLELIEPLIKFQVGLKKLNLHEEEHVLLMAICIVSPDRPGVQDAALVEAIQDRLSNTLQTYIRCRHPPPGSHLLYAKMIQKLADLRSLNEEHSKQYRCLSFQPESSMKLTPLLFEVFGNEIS
Description: Purified 1α,24(S)-(OH)2D2 was quantitated by photodiode array spectrophotometry and assayed in the radioreceptor assay.
The purified 1α,24(R)-(OH)2D2 and 1α,24(S)-(OH)2D2 epimers were quantitated by ultraviolet spectroscopy.
The binding affinities of the environmentally exposed compounds, crystalline 1α,24-dihydroxyvitamin D2 and powdered 1α,24-dihydroxyvitamin D2, to the vitamin D receptor (VDR) were assessed using methods known in the art, as described, e.g., in Example 6. […] The percent bound versus amount of compound in pg/tube are graphed in FIG. 5.

Hep 3B cells = test: Metabolism of 1α-OH-D2 in Hep 3B cells; type: in vitro ADME, human; conditions: Experiment 2, substrate 1α-OH-D2 10 μM, photodiode array spectrophotometry
Description: Substantially pure 1α-(OH)D2 was obtained from Bone Care International, Inc. of Madison, Wis. The 1α-(OH)D2 was cultured for 48 hours with cells derived from a human hepatoma, Hep 3B, in medium devoid of fetal calf serum using known methods in the art.
Lipid extracts of the combined medium and cells were generated by known methods in the art and were subjected to high pressure liquid chromatography (HPLC) on Zorbax-S1L developed with hexane/isopropano/methanol (91:7:2). The putative 1α,24(?)-(OH)2D2 metabolite eluted between the parent 1α-(OH)D2 and standard 1α,25-(OH)2D2 (also obtained from Bone Care International, Inc. of Madison, Wis.). (As used herein, the term “1α,24(?)-(OH)2D2” is meant to indicate that the epimeric form has not been identified.) The 1α,24(?)-(OH)2D2 was further purified by this HPLC system before the metabolite's identification was undertaken using mass spectrometry analysis.
Hep 3B cells were incubated with 1α-OH-D2, as described above, at final concentrations of 1, 10, or 100 nM (Experiment 1), and 1 or 10 μM (Experiment 2) and 1α,24(S)-(OH)2D2 was extracted and purified. The 1α,24(S)-(OH)2D2 and 1α,25-(OH)2D2 metabolites were quantitated by recovered radiolabel (Experiment 1) or by photodiode array spectrophotometry (Experiment 2).

[2] = Blood metabolite levels in osteoporotic women administered 1α-OH-D2; type: in vivo, human
Description: An increase in the production of 1α,24(S)-(OH)2D2 relative to 1α,25-(OH)2D2 has also been observed by the present inventors in human females who received 1α-OH-D2 as part of an investigation of that drug for the treatment of osteoporosis. Following either a single dose of 2 μg of 1α-OH-D2 or daily doses of 8 μg/day for one week, blood was collected and analyzed for the metabolites 1α,24(S)-(OH)2D2 and 1α,25-(OH)2D2. Lipid was extracted from the blood, and the metabolites were purified by HPLC using standard methods and quantified with the radioreceptor assay produced by Incstar (Stillwater, Minn.). One day after a single 2 μg dose, the level of 1α,24(S)-(OH)2D2 was undetectable with the 1α,25-(OH)2D2 level being approximately 11 pg/ml. In contrast, one day following the last dose of 8 μg, the level of 1α,24(S)-(OH)2D2 averaged 9 pg/mL with the 1α,25-(OH)2D2 level averaging 30 pg/mL.

[3] = cited from earlier work
[4] = Plasma metabolites in vitamin D-deficient rats; type: in vivo, rat; conditions: for plasma metabolite after administration: oral or intraperitoneal, vitamin D-deficient rats, HPLC of plasma lipid extracts
Description: Vitamin D2 or 24-OH-D2 was administered (either oral or intraperitoneal supplementation) to vitamin D-deficient rats. Lipid extracts of the plasma were prepared and the metabolites purified by the method of Horst et al. (Horst, R. L., Koszewski, N.J. and Reinhardt, T. A., Biochem., 29:578-82 (1990)) described below for synthesyzing standard biological 1α,24-(OH)2D2.
Standard biological 1α,24-(OH)2D2 was synthesized in vitro from 24-OH-D2 by incubating 10 μg of 24-OH-D2 in flask containing 5 mL of 20% kidney homogenates made from vitamin D-deficient chicks. The product of this reaction was isolated by HPLC and identified by mass spectrometry.

[5] = Chemical stability testing, exposure to heat and light; type: physicochemical; conditions: one week; for overall retention of the compound (remained intact): after heat and light; for share of UV absorbing material being 1α,24-dihydroxyvitamin D2 (HPLC): detection at 265 nm; for absorbence at 265 nm retained: specimens exposed to heat and light, reference standard in ethanol in a freezer
Description: Samples of approximately 5 mg of either crystalline or powdered 1α,24-dihydroxyvitamin D2 were each placed in a 5 mL volumetric flask. The flasks were exposed to identical environmental conditions of variations in heat and light. Heat and light are environmental parameters well-known to affect negatively the integrity of vitamin D compounds.
After one week's time, the contents of the flasks were visually inspected. The powdered specimen appeared to be slightly yellow in color compared to the crystalline specimen. Five mL of ethanol was added to each sample and each specimen was dissolved. These solutions were analyzed for ultraviolet absorbence from 200 to 320 nm. A reference standard 1α,24-dihydroxyvitamin D2 dissolved in ethanol at the same concentration and stored in a freezer for the identical time period was similarly analyzed.
The ethanol solutions of the crystalline and powdered 1α,24-dihydroxyvitamin D2 were also analyzed by high performance liquid chromatography (HPLC) under the following conditions: […]

SMILES: C=C1/C(=C\C=C2/CCC[C@]3(C)[C@@H]([C@H](C)/C=C/[C@](C)(O)C(C)C)CC[C@@H]23)C[C@@H](O)C[C@@H]1O [1α,24(R)-(OH)2D2, 1α,24(R)-dihydroxyvitamin D2]
Net vitamin D-inducible GH-production (vitamin D receptor (VDR); inducer 5 × 10^−8 M): 1138 ng/mL
Total GH Production (vitamin D receptor (VDR); inducer 5 × 10^−8 M): 1182 ng/mL
Net vitamin D-inducible GH-production (vitamin D receptor (VDR); inducer 10^−7 M): 1256 ng/mL
Total GH Production (vitamin D receptor (VDR); inducer 10^−7 M): 1300 ng/mL
Net vitamin D-inducible GH-production (vitamin D receptor (VDR); inducer 10^−8 M): 1056 ng/mL
Total GH Production (vitamin D receptor (VDR); inducer 10^−8 M): 1100 ng/mL
Net vitamin D-inducible GH-production (vitamin D receptor (VDR); inducer 10^−9 M): 36 ng/mL
Total GH Production (vitamin D receptor (VDR); inducer 10^−9 M): 80 ng/mL

SMILES: C=C1/C(=C\C=C2/CCC[C@]3(C)[C@@H]([C@H](C)CC[C@@H](O)C(C)C)CC[C@@H]23)C[C@@H](O)C[C@@H]1O [1α,24(R)-(OH)2D3, 1α,24(R)-dihydroxyvitamin D3]
binding to the 1,25-(OH)2D3 receptor site relative to 1,25-(OH)2D3 [1]: more tightly than does 1,25-(OH)2D3 itself

half-maximal binding (bovine thymus VDR; radioreceptor assay, Incstar kit): 80 pg/mL
Rate of Production (Hep 3B cells): 7.4 pmol per 10^6 cells/day
blood level of metabolite ([2]; one day after a single 2 μg dose of 1α-OH-D2): approximately 11 pg/ml
blood level of metabolite (average) ([2]; one day following the last dose of 8 μg/day 1α-OH-D2 for one week): 30 pg/mL
SMILES: C=C1/C(=C\C=C2/CCC[C@]3(C)[C@@H]([C@H](C)/C=C/[C@H](C)C(C)(C)O)CC[C@@H]23)C[C@@H](O)C[C@@H]1O [1α,25-(OH)2D2, 1α,25-dihydroxyvitamin D2, reference compound]

SMILES: C=C1/C(=C\C=C2/CCC[C@]3(C)[C@@H]([C@H](C)/C=C/[C@H](C)C(C)C)CC[C@@H]23)C[C@@H](O)C[C@@H]1O [1α-(OH)D2, 1α-hydroxyvitamin D2]
bone mass in human osteoporotic patients ([3]; dosages of 2.0 μg/day or higher): will reverse the loss of bone mass

SMILES: C=C1/C(=C\C=C2/CCC[C@]3(C)[C@@H]([C@H](C)CCCC(C)C)CC[C@@H]23)C[C@@H](O)C[C@@H]1O [1α-(OH)D3, 1α-hydroxyvitamin D3]
safely obtainable dosage levels ([3]; human, in vivo): dosage levels of 2.0 μg/day or greater are not safely obtained

SMILES: C=C1CC[C@H](O)C/C1=C/C=C1\CCC[C@]2(C)[C@@H]([C@H](C)/C=C/C(C)(O)C(C)C)CC[C@@H]12 (some centres unmarked) [24-OH-D2, 24-hydroxyvitamin D2]
plasma metabolite after administration [4]: one metabolite isolated co-migrated on HPLC with the standard 1α,24-(OH)2D2

SMILES: C=C1CC[C@H](O)C/C1=C/C=C1\CCC[C@]2(C)[C@@H]([C@H](C)CCCC(C)(C)O)CC[C@@H]12 [25-OH-D3, 25-hydroxyvitamin D3, reference compound]
Net vitamin D-inducible GH-production (vitamin D receptor (VDR); inducer 10^−5 M): 731 ng/mL
Total GH Production (vitamin D receptor (VDR); inducer 10^−5 M): 775 ng/mL
Net vitamin D-inducible GH-production (vitamin D receptor (VDR); inducer 10^−6 M): 1056 ng/mL
Total GH Production (vitamin D receptor (VDR); inducer 10^−6 M): 1100 ng/mL
Net vitamin D-inducible GH-production (vitamin D receptor (VDR); inducer 10^−7 M): 201 ng/mL
Total GH Production (vitamin D receptor (VDR); inducer 10^−7 M): 245 ng/mL

ED50 (amount of material to displace 50% of the bound 3H-1α,25-dihydroxyvitamin D3) (bovine thymus VDR; listed as crystalline material): about 10 pg/tube
overall retention of the compound (remained intact) [5]: over 88%
share of UV absorbing material being 1α,24-dihydroxyvitamin D2 (HPLC) [5]: 95%
retention of the structure, weight-based normalization of the HPLC peak area ([5]; listed as crystalline specimen): 93%
absorbence at 265 nm retained ([5]; listed as crystalline specimen): 93%
SMILES: C=C1C(=CC=C2CCCC3(C)C2CCC3C(C)C=CC(C)(O)C(C)C)CC(O)CC1O (stereo not drawn) [crystalline 1α,24-dihydroxyvitamin D2, 1α,24-dihydroxyvitamin D2]
binding affinity to VDR compared with reference standard (in words) (bovine thymus VDR): approximately the same as that of a reference standard

binding affinity to VDR compared with reference standard (in words) (bovine thymus VDR): considerably less
ED50 (amount of material to displace 50% of the bound 3H-1α,25-dihydroxyvitamin D3) (bovine thymus VDR): about 40 pg/tube
binding activity relative to standard 1α,24-dihydroxyvitamin D2 (bovine thymus VDR; powder form exposed to the same conditions): less than 25%
overall retention of the compound (remained intact) [5]: 35%
share of UV absorbing material being 1α,24-dihydroxyvitamin D2 (HPLC) [5]: 78%
retention of the structure, weight-based normalization of the HPLC peak area ([5]; listed as powdered specimen): 23%
absorbence at 265 nm retained ([5]; listed as powdered specimen): 45%
SMILES: C=C1C(=CC=C2CCCC3(C)C2CCC3C(C)C=CC(C)(O)C(C)C)CC(O)CC1O (stereo not drawn) [powdered 1α,24-dihydroxyvitamin D2, 1α,24-dihydroxyvitamin D2]

ED50 (amount of material to displace 50% of the bound 3H-1α,25-dihydroxyvitamin D3) (bovine thymus VDR): about 10 pg/tube
retention of the structure, weight-based normalization of the HPLC peak area [5]: 100%
share of UV absorbing material being 1α,24-dihydroxyvitamin D2 (HPLC) [5]: 96%
absorbence at 265 nm retained [5]: 100%
SMILES: C=C1C(=CC=C2CCCC3(C)C2CCC3C(C)C=CC(C)(O)C(C)C)CC(O)CC1O (stereo not drawn) [reference standard, 1α,24-dihydroxyvitamin D2]

SMILES: C=C1CC[C@H](O)C/C1=C/C=C1\CCC[C@]2(C)[C@@H]([C@H](C)/C=C/[C@H](C)C(C)C)CC[C@@H]12 [vitamin D2]
plasma metabolite after administration [4]: one metabolite isolated co-migrated on HPLC with the standard 1α,24-(OH)2D2

SMILES: C=C1CC[C@H](O)C/C1=C/C=C1\CCC[C@]2(C)[C@@H]([C@H](C)CCCC(C)C)CC[C@@H]12 [vitamin D3]
24-hydroxylated metabolite in plasma after administration ([4]; comparable rats): no detectable 24-OH-D3
